Like-named read-outs stand apart in the source and are kept apart here.
Key:
eIF4E = eIF4E (Homo sapiens, UniProt P06730); assay: NMR binding experiments (titration with protein)
Protocol: Experiments were carried out with representative compounds to provide an indication of the ability of the compounds of the present invention to bind to eIF4E and therefore act as inhibitors of the binding of eIF4E to eIF4G.

CRL2813 human melanoma = assay: SRB assay (inhibition of cell proliferation); assay type: cell-based; conditions: summary table, read-out: IC50 [μM} CRL2813
Description: (§1) A sulfur rhodamine B (SRB) assay was used to determine the extent of inhibition of cell proliferation as a measure of the anti-cancer activity of compounds of the present disclosure. The reagent SRB binds to cellular proteins and absorbs light proportionally to the cellular protein content, which is a surrogate marker for the number of cells. According to aspects of the present disclosure, the assay can be used to with any cancer cell line including breast cancer cell lines, prostate cancer cell lines, melanoma cell lines, lung cancer cell lines or any other cell lines of the cancers described herein.
(§2) The following protocol was used to determine the growth characteristics of certain cell lines CRL2351 human breast cancer and CRL2813 human melanoma from which cell lines having doubling times less than 48 hours were selected for growth inhibition experiments. […] The following materials were used in addition to the cancel cell lines: complete (5% fetal calf serum added) tissue culture media, 96-well tissue culture plates, Sulforhodamine B dye (SRB, 0.57% w/w), […] (TCA, 10%), acetic acid glacial (1%) and 10 mM Tris base. The cells were prepared and plated. Cancer cells were grown to 80% confluency in an incubator. The cells were trypsinized per standard protocol or as needed for each cell line. The trypsin was neutralized, cells dissociated and counted. Each cell line was plated at a density of 500, 1000 and 3000 cells per well (six wells each) in five separate plates. The cells were then returned to the incubator. One plate was then removed each day starting day one after plating. 100 μl of 10% TCA was then added and the cells were fixed at 4° C. until all the cells were fixed. […] The cell growth for vehicle treatment is considered to be 100%. The optical density was then measured and plotted for each starting cell number and cell line against time. The percent cell growth inhibition was calculated as 100 minus the % of control cell growth. The % of control cell growth=((mean OD sample−Mean OD day 0)/(mean OD vehicle−Mean OD day 0))*100.

[1] = tested on: CRL2351 human breast cancer; assay: SRB assay (inhibition of cell proliferation); assay type: cell-based; conditions: CRL2351 human breast cancer cells, summary table, read-out: IC50 [μM} CRL2351
Description: as §1, §2

eIF4E/eIF4G interaction = eIF4E/eIF4G interaction (Homo sapiens, UniProt P06730); assay: Fluorescent polarization assay; assay type: binding; conditions: FITC eIF4G peptide and recombinant eIF4E, ratio to Z (4EGI-1 = 1)
Protocol: The difference between the two measurement yields net polarization which is considered full signal of the assay (100% control). […] The activity of compound at each concentration is determined by comparing the fluorescent polarization (FP) signal in the presence of compound to the control (no compound) value. The percent inhibition is =100-((FP compound/FP control)*100).

[2] = Homo sapiens, CRL2813, CRL2813 human melanoma cells

Sequence of eIF4E (P06730 27-217 limits assumed): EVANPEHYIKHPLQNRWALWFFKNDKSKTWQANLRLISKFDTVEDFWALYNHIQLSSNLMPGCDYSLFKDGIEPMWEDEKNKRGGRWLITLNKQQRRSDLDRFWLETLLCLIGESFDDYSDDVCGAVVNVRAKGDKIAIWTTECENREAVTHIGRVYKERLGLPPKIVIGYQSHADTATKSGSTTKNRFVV
Sequence of eIF4E/eIF4G interaction (P06730 whole entry): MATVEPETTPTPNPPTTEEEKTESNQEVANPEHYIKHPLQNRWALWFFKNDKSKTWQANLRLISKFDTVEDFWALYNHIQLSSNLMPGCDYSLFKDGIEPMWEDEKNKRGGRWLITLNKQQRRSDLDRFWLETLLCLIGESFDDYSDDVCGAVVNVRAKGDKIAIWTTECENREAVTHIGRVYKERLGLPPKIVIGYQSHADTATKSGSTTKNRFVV

SMILES	IC50 (eIF4E) [µM]	IC50 (CRL2813 human melanoma; [2]) [µM]	IC50 ([1]; Homo sapiens) [µM]	Fp (ratio to Z) (eIF4E/eIF4G interaction)	IC50 (CRL2813 human melanoma; CRL2813 human melanoma cells) [µM]	IC50 [1] [µM]
COc1ccc(-c2nc(NN=C(Cc3ccccc3[N+](=O)[O-])C(=O)O)sc2-c2ccc(-n3cc(CO)nn3)cc2)cc1 [KY-383, 2-{[5-[4-(4-hydroxymethyl-[1,2,3]triazol-1-yl)-phenyl]-4-(4-methoxy-phenyl)-thiazol-2-yl]-hydrazono}-3-(2-nitro-phenyl)-propionic acid]	~3	13 ± 3.6	> 20	2.3	–	–
O=C(O)[C@H](Cc1ccccc1[N+](=O)[O-])Nc1nc(-c2ccc(Cl)c(Cl)c2)cs1 [KY-549]	~7	–	–	–	–	–
COc1ccc(-c2sc(N/N=C(/Cc3ccccc3[N+](=O)[O-])C(=O)O)nc2-c2ccc(OC(C)C)cc2)cc1 [KY-599S]	–	3	8.7	1.3	–	–
COc1ccc(-c2sc(N/N=C(/Cc3ccccc3[N+](=O)[O-])C(=O)O)nc2-c2ccc(Cl)c(Cl)c2)cc1 [KY-600]	–	2.8	4.5	0.7	–	–
COc1ccc(-c2sc(N/N=C(\Cc3ccccc3[N+](=O)[O-])C(=O)O)nc2-c2ccc(SC)cc2)cc1 [KY-611-pri-S]	–	6.2	15.5	0.62	–	–
COc1ccc(-c2sc(N/N=C(/Cc3ccccc3[N+](=O)[O-])C(=O)O)nc2-c2ccc(C3CCCCC3)cc2)cc1 [KY-612S]	–	–	11	1.8	0.3	–
COc1ccc(-c2nc(N/N=C(\Cc3ccccc3[N+](=O)[O-])C(=O)O)sc2-c2ccc(I)cc2)cc1 [KY-613S]	–	2.7	9.5	1.1	–	–
Br.CCN(CC)c1ccc(-c2csc(N/N=C(\Cc3ccccc3[N+](=O)[O-])C(=O)O)n2)cc1 [KY-615S]	–	12.5	–	4	–	> 20
O=C(O)/C(Cc1ccccc1[N+](=O)[O-])=N/Nc1nc(-c2ccc(OC(F)(F)F)cc2)cs1 [KY-627S]	–	> 20	> 20	0.65	–	–
O=C(O)/C(Cc1ccc(C(F)(F)F)cc1)=N/Nc1nc(-c2ccc(Cl)c(Cl)c2)cs1 [KY-680]	–	1	3	1.1	–	–
O=C(O)/C(=N\Nc1nc(-c2ccc(Cl)c(Cl)c2)cs1)c1c[nH]c2ccccc12 [KY-689, {[4-(3,4-Dichloro-phenyl)-thiazol-2-yl]-hydrazono}-(1H-indol-3-yl)-acetic acid]	–	> 20	> 20	4	–	–
O=C(O)/C(Cc1ccccc1)=N/Nc1nc(-c2ccc(Cl)c(Cl)c2)cs1 [KY-706bc]	–	3	3.5	0.65	–	–
O=C(O)C(Cc1ccccc1[N+](=O)[O-])NNc1nc(-c2ccc(Cl)c(Cl)c2)cs1 (stereo not shown) [KY-720]	~4	–	–	–	–	–
NC(=O)/C(Cc1ccccc1[N+](=O)[O-])=N/Nc1nc(-c2ccc(Cl)c(Cl)c2)cs1 [KY-725]	–	3	3	0.7	–	–
O=C(O)/C(Cc1c[nH]c2ccccc12)=N\Nc1nc(-c2ccc(Cl)c(Cl)c2)cs1 [KY-753, (Z/E)-2-(2-(4-(3,4-dichlorophenyl)thiazol-2-yl)hydrazono)-3-(1H-indol-3-yl)propanoic acid]	–	7.5	13.5	0.85	–	–
O=C(O)/C(Cc1ccc([N+](=O)[O-])cc1)=N\Nc1nc(-c2ccc(Cl)c(Cl)c2)cs1 [KY-755-p]	–	5	15	1	–	–

Further lines, results first:

IC50 (eIF4E) [µM]	IC50 (CRL2813 human melanoma; [2]) [µM]	IC50 ([1]; Homo sapiens) [µM]	Fp (ratio to Z) (eIF4E/eIF4G interaction)	IC50 (CRL2813 human melanoma; CRL2813 human melanoma cells) [µM]	IC50 [1] [µM]	SMILES
–	> 20	> 20	1	–	–	[N-]=[N+]=NC/C(=N\Nc1nc(-c2ccc(Cl)c(Cl)c2)cs1)C(=O)O [KY-757-p, (E)-3-azido-2-(2-(4-(3,4-dichlorophenyl)thiazol-2-yl)hydrazono) propanoic acid]
–	3.5	9	0.75	–	–	N.O=C(O)/C(Cn1cc(-c2ccccn2)nn1)=N/Nc1nc(-c2ccc(Cl)c(Cl)c2)cs1 [KY-767, ammonium (E)-2-(2-(4-(3,4-dichlorophenyl)thiazol-2-yl)hydrazono)-3-(4-(pyridin-2-yl)-1H-1,2,3-triazol-1-yl)propanoate]
–	–	13	0.83	10	–	O=C(O)/C(=N\Nc1nc(-c2ccc(Cl)c(Cl)c2)cs1)c1ccccc1[N+](=O)[O-] [KY-782-Z, (Z)-2-(2-(4-(3,4-dichlorophenyl)thiazol-2-yl)hydrazono)-2-(2-nitrophenyl)acetic acid]
–	7	–	1.4	–	18	O=C(O)/C(=N/Nc1nc(-c2ccc(Cl)c(Cl)c2)cs1)c1cccc([N+](=O)[O-])c1 [KY-788-E, (E)-2-(2-(4-(3,4-dichlorophenyl)thiazol-2-yl)hydrazono)-2-(3-nitrophenyl)acetic acid]
~5	–	–	–	–	–	O=C(O)C(Cc1ccc(O)cc1)=NNc1nc(-c2cccc([N+](=O)[O-])c2)cs1 [KY-A6]
–	< 1	< 1	1.05	–	–	O=C(O)/C(Cc1ccccc1[N+](=O)[O-])=N/Nc1nc2c(s1)CCc1cc(Cl)c(Cl)cc1-2 [PC-159F, 2-(2-(7,8-dichloro-4,5-dihydronaphtho[1,2-d]thiazol-2-yl)hydrazono)-3-(2-nitrophenyl)propanoic acid]
–	3.5	0.54	0.55	–	–	COC(=O)C1CN(c2nc(-c3ccc(Cl)c(Cl)c3)cs2)CCN1c1ccccc1[N+](=O)[O-] (stereo not shown) [RYF-273]
–	2.5	9	0.6	–	–	O=C(O)c1nn(-c2nc(-c3ccccc3)cs2)c2ccc([N+](=O)[O-])cc12 [RYF-292]
–	1	< 0.54	2.0	–	–	O=C(O)/C(Cc1c(Br)cccc1[N+](=O)[O-])=N/Nc1nc(-c2ccc(Cl)c(Cl)c2)cs1 [RYF-339F]

Reference: patent US8969573B2, “Compounds for the inhibition of cellular proliferation” (President and Fellows of Harvard College, priority 2010, dated 2015)
